Structures can show the parent of a compound that is named as a salt. Marks after values point to notes of the source that are not given here.
Key:
wild-type yeast (WT) = experiment: Toxicity to wild type yeast (structure-activity study, FIG. 25)
Description: (§1) Growth rescue in yeast was performed similar to previously reported (20) using 10 μM hinokitiol in low iron SD liquid media containing 10 μM FeCl3 in a 96-well plate unless otherwise noted. Wild type and fet3Δftr1Δ controls treated with vehicle (DMSO) were performed under identical conditions using the same low iron SD media containing 10 μM FeCl3 in the absence of hinokitiol. Yeast were grown overnight in YPD media and diluted at an OD600 of 0.1 in SD media, diluted 10-fold, and incubated at 30° C. with continuous shaking (200 rpm). The OD600 was obtained 24-48 hours after inoculation unless otherwise noted.
(§2) Small molecule dose-response (FIG. 1F) with hinokitiol and C2-deoxy hinokitiol (C2deOHino, see synthesis below) was determined by addition of the small molecule (40X stock solution in DMSO) to give the indicated final concentrations.

fet3Δftr1Δ yeast [1] = experiment: Growth rescue of fet3Δftr1Δ yeast with small molecules in liquid media; type: cell-based, Saccharomyces cerevisiae; conditions: liquid low iron SD media, 10 μM FeCl3
Description: as §1, §2

[2] = system: DMT1-deficient Caco-2 monolayers; experiment: 55Fe uptake and transport in DMT1-deficient Caco-2 monolayers; conditions: apical addition (hinokitiol 500 nM); pH 5.5 apical, pH 7.4 basolateral; four hours
Description: Media from differentiated Caco-2 monolayers (P25-50, 21-28 days post seeding) grown on PET inserts in 6-well plates was aspirated, and monolayers were rinsed with PBS. 2 mL of basolateral fluid (serum-free DMEM at pH=7.4 in 10 mM HEPES buffer) was added to the basolateralside, and 1 mL of apical fluid (serum-free DMEM at pH=5.5 in 10 mM MES buffer) containing 200 nM ^55FeCl3 or the indicated concentration of FeCl3 and either DMSO vehicle, hinokitiol, C2deOHino, deferiprone, PIH, SIH, or deferoxamine mesylate (Sigma D9533) (500 nM Hino/C2deOHino for DMT1-deficiency, 1 μM Hino/C2deOHino for FPN1-deficiency, or indicated concentration of small molecule from a 1000X stock in DMSO) was added to the apical side via addition on the wall of the membrane insert without disrupting the cell monolayer. The monolayers were then incubated for four hours at 37° C. unless otherwise noted. A 100 μL aliquot of the basolateral fluid was removed, diluted in scintillation cocktail, and radioactivity was determined on a liquid scintillation counter to quantify relative amounts of ^55Fe transport. To determine intracellular ^55Fe, the basolateral and apical media was removed, and the monolayer was rinsed with PBS (×2). The cells were then lysed with 500 μL of 200 mM NaOH with nutator mixing overnight, and radioactivity was determined on a liquid scintillation counter after diluting the cell lysate in scintillation cocktail. All values were normalized to shControl monolayers unless otherwise noted. Absolute iron levels were determined through calibration of ^55Fe radioactivity levels with known standards and average mg of protein per membrane was determined by protein lysis with RIPA buffer containing protease inhibitors and quantified through a BCA kit according to manufacturer instructions.
TEER determination in Caco-2 monolayers (FIG. 12D and FIG. 14L) To determine Caco-2 membrane integrity, transport studies were performed as described above, except for the use of non-radioactive iron instead of ^55FeCl3. At the indicated time points, the transepithelial electrical resistance (TEER) was determined with an epithelial voltohmmeter and compared to the TEER of the membrane at the beginning of the experiment.

[3] = Iron (III) binding affinity, EDTA or citrate competition assay; conditions: for KA for iron (III): EDTA competition (citrate for maltol), pH 7.0; for pFe^III: estimated from known pFe of EDTA (citrate for maltol)
Description: (§3) Specifically, the association constant for iron (II) was determined by a ferrozine competition assay (KA of ferrozine=3.65×10^15) (60). FeCl2 (25 μM) was pre-mixed with ferrozine (75 μM) in a 25 mM MES/Tris buffer at pH=7.0 containing 62.5 mM sodium ascorbate. Then increasing concentrations of small molecule (from 40X stocks in DMSO) were added to the indicated final concentrations. The solutions were allowed to equilibrate for 24 hours before reading of the absorbance at 562 nm. […] The system was allowed to equilibrate overnight, and the absorbance corresponding to the Fe(chelator)3 complex was determined. The EC50 values for each chelator were calculated by a nonlinear curve fit (Hill1) on OriginPro by plotting the absorbance vs. concentration of titrant, and the KA for each complex was determined from the equation: KA, ligand=(KA, competitor*[EC50])/[ligand] where the ligand is the molecule originally bound to iron, and the competitor is the competing chelator.

[4] = Iron efflux from liposomes using ferrozine; type: biochemical; conditions: 5 μM small molecule
Description: Iron (III) efflux from POPC liposomes was determined similar to previously reported (64). POPC liposomes were prepared as similarly reported (65) using 30 mM FeCl3, 62.5 mM citrate at pH=7.0 in 25 mM Mes/Tris buffer. External iron was removed by size exclusion chromatography using Sephadex G-50 and eluting with external buffer. External buffer consisted of 62.5 mM ascorbate at pH=7.0 in 25 mM Mes/Tris buffer. The liposomes were diluted to 1 mM phosphorus in this buffer. Ferrozine (Sigma 160601) was added (100X stock in external buffer) to a final concentration of 500 μM. Liposomal suspension was then transferred to a 96-well plate, and either DMSO or 5 μM hinokitiol, C2deOHino, deferiprone, or PIH (40X stock solution in DMSO) were added to initiate the experiment. The OD562 was determined every minute over the course of 2 hours using a plate-reader with continuous shaking at 30° C. to detect the relative amounts of external ferrozine-iron chelate at the indicated times. After 2 hours, liposomes were lysed with Triton-X to give 100% iron efflux.
Iron (II) efflux was performed as described above, however, the internal buffer alternatively consisted of 30 mM FeSO4, 62.5 mM ascorbate at pH=7.0 in 25 mM Mes/Tris buffer and Triton-X lysis was performed after 1 hour.
The rates of iron efflux with increasing concentrations of intraliposomal iron and/or hinokitiol were determined as described above using the indicated concentration of iron and hinokitiol. For the varying concentrations of iron, hinokitiol (10 μM) was added to the POPC liposomes, and the change in absorbance at 562 nm was determined over 2 hours. For the varying concentrations of hinokitiol, 30 mM intraliposomal iron was used as described above. The concentration of iron outside of liposomes was determined using the extinction coefficient for ferrozine-iron (27,900 M^−1 cm^−1) (66). This was used to determine the amount of iron released from liposomes at the indicated times using the total volume for each experiment. Rates of iron efflux were determined after one hour of hinokitiol treatment.

[5] = not run under identical conditions, cited from earlier work; for E^0 Aqueous, literature value: Table 2, in parenthesis; for E^0 literature: Table 6
[6] = Iron (II) binding affinity, ferrozine competition assay; conditions: pH 7.0
Description: as §3

[7] = Electrochemical studies (cyclic voltammetry) of iron:chelator complexes; type: physicochemical
Description: Potentiostatic electrochemical methods were performed on a CH Instruments electrochemical workstation (model 760 C, Austin, TX) on a three-electrode cell. Hg working electrodes were fabricated by the electrodeposition of Hg on a Pt wire utilizing the procedure previously described by Barton et al. (70). All experiments were reported versus a Ag/AgCl reference electrode and utilized a graphite auxiliary electrode. The electrolyte was sparged with UHP argon before measurements. A positive pressure of argon was maintained throughout the experiments.
Unless otherwise indicated, experiments used a 0.1 M Tris buffer in H2O or 1:1 MeOH:H2O at pH=7.2 using HNO3 and KOH as titrant. Unless otherwise indicated, experiments used a 100 mV/s scan rate, 100 μM Fe(NO3)3, and 500 μM small molecule. All redox potentials are recorded versus a normal hydrogen electrode (NHE).
The estimated redox potential of Fe(Hino)n was determined through extrapolation of the best-fit line of the determined redox potentials of Fe(Hino)n as a function of the concentration of MeOH in the 0.1 M Tris buffer at pH=7.2.

[8] = in parenthesis, cited from earlier work; for pFe^III, literature value: References 104, 106
[9] = WST-8 toxicity in Caco-2 cells; conditions: human, wild type Caco-2 cells
Description: Determination of small molecule-mediated toxicity in Caco-2, MEL, and/or J774 cells was performed according to manufacturer instructions using a WST-8 kit (Cayman Chemical 10010199) similar to previously reported (76) using a 1000× stock of the indicated small molecule in DMSO to give the indicated final concentration.

fet3Δftr1Δ yeast [10] = experiment: Growth rescue of iron-deficient yeast with small molecules on agar plates; type: cell-based, Saccharomyces cerevisiae; conditions: low iron SD-agar plates, 10 μM FeCl3
[11] = system: hinokitiol-rescued fet3Δftr1Δ yeast; experiment: Chemical inhibition of yeast cell growth with inhibitors of Pma1, V-ATPase; type: cell-based, Saccharomyces cerevisiae; conditions: 10 μM hinokitiol, 10 μM FeCl3
Description: Increasing dosages of caspofungin (Sigma SML0425), ebselen (Sigma 70530), or bafilomycin B1 (Santa Cruz sc-202072) (40X stocks in DMSO) were added to a yeast suspension (10-fold dilution from OD600=0.1) to give the indicated final dose. EC50 values were calculated from fitting of yeast growth curves using GraphPad PRISM.

SMILES: CC(C)CCc1cccc(O)c(=O)c1 [4-isopentyl tropolone]
- toxicity to wild type yeast (wild-type yeast (WT)): most toxic
- restoration of fet3Δftr1Δ yeast growth, small molecule dose-response (fet3Δftr1Δ yeast [1]): no rescue

SMILES: Cc1c(O)c(=O)ccn1C [Deferiprone, deferiprone]
- iron uptake and transepithelial transport [2]: did not promote both uptake and transport
- KA for iron (III) [3]: 1.2 × 10^24
- pFe^III [3]: 22^+
- transport of ferrous and ferric iron across model liposomal membranes [4]: minimal transport
- E^0 Aqueous, literature value [5]: (−423)^# mV vs. N.H.E.
- KA for iron (II) [6]: 2.1 × 10^15
- E^0 Aqueous ([7]; Table 2): −420 mV vs. N.H.E.
- E^0 1:1 MeOH:H2O ([7]; Table 2, 0.1 M Tris, pH 7.2): −410 mV vs. N.H.E.
- pFe^III, literature value [8]: (21)^§
- EC90 [9]: > 100 µM
- growth rescue of fet3Δftr1Δ yeast (fet3Δftr1Δ yeast [10]): no growth rescue

SMILES: O=C(O)CN(CCN(CC(=O)O)CC(=O)O)CC(=O)O [EDTA]
- E^0 Aqueous, literature value [5]: (137)**** mV vs. N.H.E.
- KA for iron (II) [6]: 1.2 × 10^15
- E^0 Aqueous ([7]; Table 2): 131 mV vs. N.H.E.
- E^0 1:1 MeOH:H2O ([7]; Table 2, 0.1 M Tris, pH 7.2): 139 mV vs. N.H.E.
- KA for iron (III), literature value ([8]; Reference 60): (1.7 × 10^24)*
- pFe^III, literature value [8]: (22)^∥

SMILES: O=C([O-])CN(CCN(CC(=O)[O-])CC(=O)[O-])CC(=O)[O-].[Fe+3] [Fe^III(EDTA)]
- E^0 literature [5]: 137^§ mV vs. N.H.E.
- E^0 Aqueous ([7]; Table 6): 181 mV vs. N.H.E.
- E^0 1:1 MeOH:H2O ([7]; Table 6, pH 7.2, 500 μM small molecule, 100 μM Fe(NO3)3): 139 mV vs. N.H.E.

SMILES: Cc1occc(=O)c1O [Maltol, maltol]
- KA for iron (III) [3]: 3.9 × 10^17
- pFe^III [3]: 15.4^±
- E^0 Aqueous, literature value [5]: (40)*** mV vs. N.H.E.
- KA for iron (II) [6]: 7.8 × 10^13
- E^0 Aqueous ([7]; Table 2): 41 mV vs. N.H.E.
- E^0 1:1 MeOH:H2O ([7]; Table 2, 0.1 M Tris, pH 7.2): 8 mV vs. N.H.E.
- pFe^III, literature value [8]: (15)^§

SMILES: NC(=O)c1ccc[n+]([C@@H]2O[C@H](COP(=O)([O-])OP(=O)(O)OC[C@H]3O[C@@H](n4cnc5c(N)ncnc54)[C@H](OP(=O)(O)O)[C@@H]3O)[C@@H](O)[C@H]2O)c1 [NADP^+]
- E^0 literature [5]: 108 mV vs. N.H.E.

SMILES: Cc1ncc(CO)c(C=NNC(=O)c2ccncc2)c1O [PIH, pyridoxal isonicotinoyl hydrazone]
- iron uptake and transepithelial transport [2]: did not promote both uptake and transport
- transport of ferrous and ferric iron across model liposomal membranes [4]: minimal transport
- EC90 [9]: 31 µM
- growth rescue of fet3Δftr1Δ yeast (fet3Δftr1Δ yeast [10]): no growth rescue

SMILES: O=C(NN=Cc1ccccc1O)c1ccncc1 [SIH, salicylaldehyde isonicotinoyl hydrazone]
- iron uptake and transepithelial transport [2]: did not promote both uptake and transport
- growth rescue of fet3Δftr1Δ yeast (fet3Δftr1Δ yeast [10]): no growth rescue

SMILES: O=c1cccccc1O [Tropolone, tropolone]
- toxicity to wild type yeast (wild-type yeast (WT)): does not show toxicity
- restoration of fet3Δftr1Δ yeast growth, small molecule dose-response (fet3Δftr1Δ yeast [1]): shows rescue of Fet3Ftr1 yeast, but only at higher concentrations

SMILES: CO/C1=C\C(C)=C\[C@@H](C)[C@@H](O)[C@@H](C)C/C(C)=C/C=C/[C@H](OC)[C@@H]([C@@H](C)[C@@H](O)[C@H](C)[C@@]2(O)C[C@@H](OC(=O)/C=C/C(=O)NC3=C(O)CCC3=O)[C@H](C)[C@@H](C(C)C)O2)OC1=O [bafilomycin, bafilomycin B1]
- sensitivity of hinokitiol-rescued fet3Δftr1Δ yeast relative to hinokitiol-treated wild type yeast [11]: increased sensitivity

SMILES: CC[C@H](C)C[C@H](C)CCCCCCCCC(=O)N[C@H]1C[C@@H](O)[C@@H](NCCN)NC(=O)[C@@H]2[C@@H](O)CCN2C(=O)[C@H]([C@H](O)CCN)NC(=O)[C@H]([C@H](O)[C@@H](O)c2ccc(O)cc2)NC(=O)[C@@H]2C[C@@H](O)CN2C(=O)[C@H]([C@@H](C)O)NC1=O [caspofungin]
- sensitivity of hinokitiol-rescued fet3Δftr1Δ yeast relative to hinokitiol-treated wild type yeast [11]: equisensitive

SMILES: CC(=O)N(O)CCCCCNC(=O)CCC(=O)N(O)CCCCCNC(=O)CCC(=O)N(O)CCCCCN [deferoxamine, deferoxamine mesylate]
- iron uptake and transepithelial transport [2]: did not promote both uptake and transport
